Measured values as given in ChEMBL document CHEMBL5727031, “Metabotropic glutamate receptor negative allosteric modulators (NAMS) and uses thereof” (2018).

Legend:
[1] = (§1) In Vitro GIRK Thallium Flux Assay (2.5 minutes): Human Embryonic Kidney (HEK-293) cell lines co-expressing rat mGlu receptors 2, 3, 4, 6, 7 or 8 and G protein-coupled inwardly-rectifying potassium (GIRK) channels_ENREF_54 were grown in Growth Media containing 45% DMEM, 45% F-12, 10% FBS, 20 mM HEPES, 2 mM L-glutamine, antibiotic/antimycotic, non-essential amino acids, 700 μg/ml G418, and 0.6 μg/ml puromycin at 37° C. in the presence of 5% CO2. All cell culture reagents were purchased from Invitrogen Corp. (Carlsbad, Calif.) unless otherwise noted. Compound activity at the group II (mGlu2 and mGlu3) mGlus was assessed using thallium flux through GIRK channels. Briefly, cells were plated into 384-well, black-walled, clear-bottomed poly-D-lysine-coated plates at a density of 15,000 cells/20 μL/well in DMEM containing 10% dialyzed FBS, 20 mM HEPES, and 100 units/mL penicillin/streptomycin (assay media). Plated cells were incubated overnight at 37° C. in the presence of 5% CO2. The following day, the medium was exchanged from the cells to assay buffer [Hanks' balanced salt solution (Invitrogen) containing 20 mM HEPES, pH 7.3] using an ELX405 microplate washer (BioTek), leaving 20 μL/well, followed by the addition of 20 μL/well FluoZin2-AM (330 nM final concentration) indicator dye (Invitrogen; prepared as a stock in DMSO and mixed in a 1:1 ratio with Pluronic acid F-127) in assay buffer. Cells were incubated for 1 h at room temperature, and the dye exchanged to assay buffer using an ELX405, leaving 20 μL/well. Test compounds were diluted to 2 times their final desired concentration in assay buffer (0.3% DMSO final concentration). Agonists were diluted in thallium buffer [125 mM sodium bicarbonate (added fresh the morning of the experiment), 1 mM magnesium sulfate, 1.8 mM calcium sulfate, 5 mM glucose, 12 mM thallium sulfate, and 10 mM HEPES, pH 7.3] at 5 times the final concentration to be assayed. Cell plates and compound plates were loaded onto a kinetic imaging plate reader (FDSS 6000 or 7000; Hamamatsu Corporation, Bridgewater, N.J.). Appropriate baseline readings were taken (10 images at 1 Hz; excitation, 470±20 nm; emission, 540±30 nm) and test compounds were added in a 20 μL volume and incubated for either 2.5 min or 60 min as indicated before the addition of 10 μL of thallium buffer with or without agonist. After the addition of agonist, data were collected for approximately an additional 2.5 min. Data were analyzed using Excel (Microsoft Corp, Redmond, Wash.). The slope of the fluorescence increase beginning 5 s after thallium/agonist addition and ending 15 s after thallium/agonist addition was calculated, corrected to vehicle and maximal agonist control slope values, and plotted in using either XLfit (ID Business Solutions Ltd) or Prism software (GraphPad Software, San Diego, Calif.) to generate concentration-response curves. Potencies were calculated from fits using a four-point parameter logistic equation. For concentration-response curve experiments, compounds were serially diluted 1:3 into 10 point concentration response curves and were transferred to daughter plates using an Echo acoustic plate reformatter (Labcyte, Sunnyvale, Calif.). Test compounds were applied and followed by EC80 concentrations of glutamate.; settings: HEK293, 2.5 min
[2] = as §1; settings: HEK293, 2.5 min; remark: listed apart in the source
[3] = as §1, with “Assay (60” for “Assay (2.5”, “additional 60” for “additional 2.5”; settings: HEK293, 1 h
[4] = as above; settings: HEK293, 1 h; remark: listed apart in the source

| SMILES | EC50 [1] [µM] | EC50 [2] [µM] | EC50 [3] [µM] | EC50 [4] [µM] |
| --- | --- | --- | --- | --- |
| Clc1ccccc1-c1cccc(-c2csc(-c3ccccc3)n2)c1 | > 30 | > 10 | > 10 | > 30 |
| Fc1ccc(-c2cccc(-c3nsc(-c4ccoc4)n3)c2)cc1 | 3.63 | > 10 | > 10 | 3.71 |
| O=C(O)c1cccc(-c2cccc(-c3coc(-c4ccccc4)n3)c2)c1 | – | – | > 10 | – |
| Clc1ccc(-c2nc(-c3cccc(-c4ccccc4)c3)cs2)cn1 | 3.83 | > 10 | 0.83 | 0.27 |
| Fc1cccc(-c2cccc(-c3nsc(-c4ccoc4)n3)c2)c1 | 0.17 | 3.43 | 1.23 | 0.11 |
| O=C(O)c1ccccc1-c1cccc(-c2nc(-c3ccc(C(F)(F)F)nc3)cc(C(F)(F)F)n2)c1 | – | – | > 10 | > 10 |
| COc1ccc(-n2nc(-c3cccc(-c4ccccc4)c3)nc2-c2ccccc2)cc1 | > 10 | 2.96 | 0.46 | 6.58 |
| O=C(O)c1cccc(-c2cccc(-c3nc(-c4ccccc4)nn3-c3ccccc3)c2)c1 | – | – | > 10 | > 10 |
| Fc1ccc(-c2csc(-c3ccccc3)n2)cc1 | > 10 | > 30 | > 30 | > 30 |
| Cc1cc2c(cc1C(F)(F)F)NC(=O)CC(c1cccc(Oc3ccccc3)c1)N2 (stereo unspecified) | – | – | > 10 | > 10 |
| O=C(O)c1cc(-c2cccc(Oc3nc(-c4ccco4)cc(C(F)(F)F)n3)c2)ccc1F | – | – | – | > 30 |
| O=C(O)c1ccccc1-c1cccc(-c2nc(-c3ccccc3)n(-c3ccccc3)n2)c1 | – | – | > 10 | > 30 |
| Fc1ccc(-c2cccc(-c3csc(-c4ccoc4)n3)c2)cc1 | 2.26 | > 10 | > 10 | 2.5 |
| N#Cc1cccc(C2=Nc3ccc(Br)cc3NC(=O)C2)c1 | – | – | > 30 | > 30 |
| Cc1cc(-c2cccc(C3CC(=O)Nc4cc(NC(=O)Oc5ccccc5)ccc4N3)c2)cc(C)n1 (stereo unspecified) | – | – | > 10 | > 10 |
| Cc1noc(C)c1-c1cc(C(F)(F)F)nc(-c2cccc(-c3ccc(F)c(C(=O)O)c3)c2)n1 | – | – | > 10 | > 10 |
| CC(C)(C)OC(=O)Nc1ccc(C(=O)OC(C)(C)C)cc1NC(=O)CC(=O)c1ccnc(C#N)c1 | – | – | – | > 30 |
| Fc1ccc(-c2ccc(-c3csc(-c4ccccc4)n3)s2)cc1 | > 10 | > 10 | > 10 | > 10 |
| c1ccc(-c2cccc(-c3nsc(-c4ccccc4)n3)c2)cc1 | 0.32 | 2.28 | 0.45 | 0.05 |

| SMILES | EC50 [1] [µM] | EC50 [2] [µM] | EC50 [3] [µM] | EC50 [4] [µM] |
| --- | --- | --- | --- | --- |
| Fc1ccc(-c2cccc(-c3nsc(-c4ccccc4)n3)c2)cc1 | 0.1 | 0.52 | 0.46 | 0.05 |
| c1ccc(-c2nc(-c3cccc(-c4ccco4)c3)nn2-c2ccccc2)cc1 | > 10 | 0.21 | > 30 | > 30 |
| Fc1ccccc1-c1cccc(-c2nsc(-c3ccccc3)n2)c1 | 0.89 | > 10 | > 10 | 0.11 |
| COc1ccccc1-c1cccc(-c2csc(-c3ccccc3)n2)c1 | 1.81 | > 10 | > 10 | 1.35 |
| C(=C\c1nc(-c2cccc(-c3ccccc3)c2)cs1)/c1ccccc1 | 3.47 | > 10 | > 10 | > 10 |
| Cc1cc2c(cc1C(F)(F)F)NC(=O)CC(c1cccc(C#Cc3ccccc3)c1)=N2 | – | – | > 10 | > 10 |
| O=C1CC(c2ccnc(Br)c2)=Nc2ccc(-c3ccc(C(F)(F)F)cc3C(F)(F)F)cc2N1 | – | – | > 10 | – |
| O=C(O)c1cccc(-c2cccc(-c3cc(-c4ccccc4)sn3)c2)c1 | – | – | > 10 | – |
| FC(F)(F)c1ccc(-c2nc(-c3cccc(-c4ccccc4)c3)nn2-c2ccccc2)cn1 | > 10 | 5.56 | 0.85 | > 10 |
| O=[N+]([O-])c1cccc(-c2cccc(-c3csc(-c4ccccc4)n3)c2)c1 | > 10 | > 10 | > 30 | > 10 |
| c1ccc(-c2cccc(-c3coc(-c4ccccc4)n3)c2)cc1 | > 10 | > 30 | > 30 | > 10 |
| Fc1ccc(-c2cccc(-c3csc(-c4ccco4)n3)c2)cc1 | 2.4 | > 10 | > 30 | > 10 |
| Cn1nc(-c2cccc(-c3ccccc3)c2)nc1-c1ccccc1 | 0.59 | > 10 | > 10 | 1.48 |
| O=C(O)c1ccccc1-c1cccc(-c2csc(-c3ccccc3)n2)c1 | – | – | > 10 | > 10 |
| Cc1cc2c(cc1C(F)(F)F)NC(=O)CC(c1cccc(Oc3cc(F)cc(F)c3)c1)=N2 | – | – | – | > 10 |
| Cc1cc(NC(=O)OC(C)(C)C)c(NC(=O)CC(=O)c2cccc(Oc3ccccc3)c2)cc1C(F)(F)F | 2.21 | 2.62 | 1.93 | 1.19 |
| c1ccc(-c2cccc(-c3csc(-c4ccc5ccccc5c4)n3)c2)cc1 | > 10 | > 30 | > 10 | 4.98 |
| COc1ccc(-c2cccc(-c3csc(-c4ccccc4)n3)c2)cc1 | 1.73 | 1.77 | 2.86 | 2.14 |
| Cc1cc(NC(=O)OC(C)(C)C)c(NC(=O)CC(=O)c2cccc(-n3ccc4ccccc43)c2)cc1C(F)(F)F | – | – | > 10 | > 10 |

| SMILES | EC50 [1] [µM] | EC50 [2] [µM] | EC50 [3] [µM] | EC50 [4] [µM] |
| --- | --- | --- | --- | --- |
| O=C(O)c1ccc(-c2cccc(-c3nc(-c4ccc(C(F)(F)F)nc4)cc(C(F)(F)F)n3)c2)cc1 | – | – | > 10 | > 10 |
| Cc1ccccc1-c1cc(C(F)(F)F)nc(-c2cccc(-c3ccc(F)c(C(=O)O)c3)c2)n1 | – | – | > 10 | – |
| Cc1cc2c(cc1C(F)(F)F)NC(=O)CC(c1cccc(Oc3cccc(Br)c3)c1)=N2 | – | – | – | > 10 |
| c1ccc(-c2nc(-c3cccc(-c4cccc(-c5nn[nH]n5)c4)c3)cs2)cc1 | – | – | > 10 | – |
| Cc1cc2c(cc1C(F)(F)F)NC(=O)CC(c1cccc(Br)c1)=N2 | – | – | > 10 | > 10 |
| Cc1cc2c(cc1C(F)(F)F)NC(=O)CC(c1cccc(OCc3ccccc3)c1)N2 (stereo unspecified) | – | – | – | > 10 |
| Cc1cc2c(cc1C(F)(F)F)NC(=O)CC(c1cccc(Oc3ncccn3)c1)N2 (racemic) | > 10 | – | – | – |
| O=C(O)c1cc(-c2ccc(-c3csc(-c4ccccc4)n3)cc2)ccc1F | – | – | – | > 30 |
| O=C(O)c1cc(-c2cccc(-c3nc(-c4cc(C(F)(F)F)cc(C(F)(F)F)c4)cc(C(F)(F)F)n3)c2)ccc1F | – | – | > 10 | – |
| O=C(O)c1cc(-c2cccc(-c3cnc(-c4ccccc4)s3)c2)ccc1F | – | – | > 10 | – |
| c1ccc(-c2cccc(-c3nc(-c4ccccc4)n(-c4ccccc4)n3)c2)cc1 | > 10 | – | – | > 10 |
| c1ccc(-c2cccc(-c3csc(-c4ccccc4)n3)c2)cc1 | – | – | > 10 | – |
| O=C(O)c1cccc(-c2cccc(-c3cn(-c4ccccc4)c(-c4ccccc4)n3)c2)c1 | – | – | – | > 10 |
| O=C1CC(c2cccc(Br)c2)Nc2ccc(NC(=O)OCc3ccccc3)cc2N1 (stereo unspecified) | – | – | – | > 10 |
| Cc1cc(-c2cccc(C3CC(=O)Nc4cc(NC(=O)OCc5ccccc5)ccc4N3)c2)cc(C)n1 (racemic) | > 10 | – | – | – |
| Cc1cc2c(cc1C(F)(F)F)NC(=O)CC(c1cccc(C#C[Si](C)(C)C)c1)N2 (stereo unspecified) | – | – | 4.53 | 4.47 |
| COc1ccc(-c2cccc(-c3nc(-c4ccco4)cc(C(F)(F)F)n3)c2)cc1C(=O)O | – | – | > 10 | – |
| NS(=O)(=O)c1cccc(-c2cn(-c3nc(-c4ccc(C(F)(F)F)nc4)cc(C(F)(F)F)n3)cn2)c1 | – | – | – | > 10 |
